Results from US8877801B2, “Compounds and compositions as selective estrogen receptor degraders” (Novartis AG, priority 2013, dated 2014).

target: T1, ER (Homo sapiens, UniProt P03372); test: ER transcription assay (MCF7 cells), ERE-luciferase reporter; assay type: cell-based; conditions: MCF7 cells, ER reporter gene, 0.1 nM 17β estradiol, 24 hours; read-out: MCF7 IC50 (inflection point of the inhibition of transcription in MCF7 cells)
T1 construct: transfected in MCF7 cells (containing endogenous ER); endogenous in cells; host or cells: MCF7 cells
T1 sequence (P03372 1-595): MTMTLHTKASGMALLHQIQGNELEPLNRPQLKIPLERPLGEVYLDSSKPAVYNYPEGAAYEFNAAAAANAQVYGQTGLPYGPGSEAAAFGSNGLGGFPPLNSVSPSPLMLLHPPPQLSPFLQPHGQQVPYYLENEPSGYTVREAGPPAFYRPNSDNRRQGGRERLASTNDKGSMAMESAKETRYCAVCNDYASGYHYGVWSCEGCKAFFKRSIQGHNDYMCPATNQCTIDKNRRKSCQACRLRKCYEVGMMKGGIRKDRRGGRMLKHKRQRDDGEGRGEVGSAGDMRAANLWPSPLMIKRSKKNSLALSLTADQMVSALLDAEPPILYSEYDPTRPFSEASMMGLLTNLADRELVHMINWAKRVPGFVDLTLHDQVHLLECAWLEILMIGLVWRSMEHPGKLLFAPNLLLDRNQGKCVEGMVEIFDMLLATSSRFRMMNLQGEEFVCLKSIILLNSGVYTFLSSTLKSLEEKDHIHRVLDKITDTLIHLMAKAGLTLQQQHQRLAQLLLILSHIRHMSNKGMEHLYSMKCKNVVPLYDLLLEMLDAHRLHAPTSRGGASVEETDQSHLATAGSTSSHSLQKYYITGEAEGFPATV
Description: ER Transcription Assay (MCF7 Cells)
The ER transcription assay is a reporter assay that is based on the ability of ER to induce transcription from a luciferase reporter gene containing estrogen response elements (EREs) in the promoter/enhancer region. When the reporter gene is transfected in MCF7 cells (containing endogenous ER), transcription is reflected by the level of luciferase expression.
A day before transfection, cells are split into a T75 flask at a cell density of 300,000 cells/mL (10 mL total) and allowed to attach overnight in a humidified CO2 incubator at 37° C.
Approximately 20 ug DNA is mixed in OptiMEM (Invitrogen) to a total volume of 650 μL. Following incubation, the OptiMEM-DNA mixture is added to the OptiMEM-Lipofectin mix and incubated for 15 minutes at 37° C. The DNA-Lipofectin mixture is then added directly to the T75 flask and the flask is returned to the incubator.
After overnight incubation, compound is added to individual wells of a 96-well plate in a 10 μL volume of media at 10× concentration along with 17β estradiol whose final concentration is 0.1 nM. Normally, DMSO (used as a vehicle) is included to achieve a final concentration of 0.1% when added to the cells. Transfected cells are trypsinized, resuspended in DMEM/F12/10% charcoal-stripped serum and added to the 96-well plate at 25,000 cells/well in 90 μL of media. The plate is then returned to the incubator for 24 hours.
After incubation with compounds for 24 hours, Firefly and Renilla luciferase activities are measured to determine ER transcriptional activity. Media is removed from 96-well plates by decanting and blotting on paper towels.
One second total read time after a one second delay.
One second total read time after one second delay. If Firefly luciferase signal is high, Renilla assay must be done an hour after the Firefly assay due to incomplete squelching of Firefly signal.
The data describing the antagonist and degradation properties for the examples is compiled in table 10. The column titled MCF7 IC50 reports the inflection point of the inhibition of transcription in MCF7 cells as described above. Percentage ERα remaining reports the remaining ERα protein measured at 10 μM concentration of the ligand as described above. The column ERα IC50 reports the inflection point of the degradation in response to the ligand concentration.

| SMILES | IC50 [nM] |
| --- | --- |
| CC(C)(C)c1ccccc1-c1sc2cc(O)ccc2c1Oc1ccc(/C=C/C(=O)O)cc1 [Example 20, (E)-3-(4-((2-(2-(tert-butyl)phenyl)-6-hydroxybenzo[b]-thiophen-3-yl)oxy)phenyl)-acrylic acid] | 36 |
| COC(=O)/C=C/c1ccc(Oc2c(-c3ccc(F)cc3)sc3cc(O)ccc23)cc1 [Example 36, (E)-methyl 3-(4-((2-(4-fluorophenyl)-6-hydroxybenzo[b]thiophen-3-yl)oxy)phenyl)-acrylate] | 137 |
| O=C(O)/C=C/c1ccc(Oc2c(-c3ccc(C(F)(F)F)cc3C(F)(F)F)sc3cc(O)ccc23)cc1 [Example 11, (E)-3-(4-((2-(2,4-bis(trifluoromethyl)-phenyl)-6-hydroxy-benzo[b]thiophen-3-yl)oxy)phenyl)-acrylic acid] | 53 |
| O=C(O)/C=C/c1ccc(Oc2c(-c3ccc(Cl)cc3)sc3cc(O)ccc23)cc1 [Example 6, (E)-3-(4-((2-(4-chlorophenyl)-6-hydroxybenzo[b]-thiophen-3-yl)oxy)phenyl)-acrylic acid] | 3100 |
| CCOC(=O)/C=C/c1ccc(Oc2c(-c3ccc(O)cc3)sc3cc(O)ccc23)c(C)c1 [Example 35, (E)-ethyl 3-(4-((6-hydroxy-2-(4-hydroxyphenyl)benzo[b]-thiophen-3-yl)oxy)-3-methylphenyl)acrylate] | 103 |
| O=C(O)/C=C/c1ccc(Oc2c(-c3ccc(C(F)(F)F)cc3)sc3cc(O)ccc23)cc1 [Example 3, (E)-3-(4-((6-hydroxy-2-(4-(trifluoromethyl)phenyl)benzo[b]thiophen-3-yl)oxy)phenyl)acrylic acid] | 941 |
| Cc1nnc(/C=C/c2ccc(Oc3c(-c4ccc(F)cc4C)sc4cc(O)ccc34)cc2)o1 [Example 46, (E)-2-(4-fluoro-2-methylphenyl)-3-(4-(2-(5-methyl-1,3,4-oxadiazol-2-yl)vinyl)phenoxy)benzo[b]thiophen-6-ol] | 108 |
| Cc1nnc(/C=C/c2ccc(Oc3c(-c4ccc(F)cc4C)sc4cc(O)ccc34)cc2)[nH]1 [Example 49, (E)-2-(4-fluoro-2-methylphenyl)-3-(4-(2-(5-methyl-4H-1,2,4-triazol-3-yl)vinyl)phenoxy)benzo[b]thiophen-6-ol] | 41 |
| Cc1cc(Oc2c(-c3ccc(O)cc3)sc3cc(O)ccc23)ccc1/C=C/C(=O)O [Example 56, (E)-3-(4-((6-hydroxy-2-(4-hydroxyphenyl)-benzo[b]thiophen-3-yl)oxy)-2-methylphenyl)-acrylic acid] | 1270 |
| Cc1cc(C(F)(F)F)ccc1-c1sc2cc(O)ccc2c1Oc1ccc(/C=C/C(=O)O)cc1 [Example 10, (E)-3-(4-((6-hydroxy-2-(2-methyl-4-(tri-fluoromethyl)phenyl)-benzo[b]thiophen-3-yl)oxy)phenyl)acrylic acid] | 207 |
| CN(C)Cc1ccccc1-c1sc2cc(O)ccc2c1Oc1ccc(/C=C/C(=O)O)cc1 [Example 77, (E)-3-(4-((2-(2-((dimethylamino)methyl)phenyl)-6-hydroxybenzo[b]thiophen-3-yl)oxy)phenyl)acrylic acid] | 40 |
| C/C(=C\c1ccc(Oc2c(-c3ccc(O)cc3)sc3cc(O)ccc23)cc1)C(=O)O [Example 28, (E)-3-(4-((6-hydroxy-2-(4-hydroxyphenyl)benzo[b]thiophen-3-yl)oxy)phenyl)-2-methylacrylic acid] | 886 |
| CC(C)(C)c1ccc(-c2sc3cc(O)ccc3c2Oc2ccc(/C=C/C(=O)O)cc2)cc1 [Example 22, (E)-3-(4-((2-(4-(tert-butyl)phenyl)-6-hydroxybenzo[b]-thiophen-3-yl)oxy)phenyl)-acrylic acid] | 853 |
| O=C(O)/C=C/c1ccc(Oc2c(-c3ccccc3)sc3cc(O)ccc23)cc1 [Example 60, (E)-3-(4-((6-hydroxy-2-phenylbenzo[b]thiophen-3-yl)oxy)phenyl)-acrylic acid] | 2310 |
| Cn1nnnc1/C=C/c1ccc(Oc2c(-c3ccc(F)cc3)sc3cc(O)ccc23)cc1 [Example 52, (E)-2-(4-fluorophenyl)-3-(4-(2-(1-methyl-1H-tetrazol-5-yl)vinyl)phenoxy)benzo [b]thiophen-6-ol] | 5980 |
| Cn1nnc(/C=C/c2ccc(Oc3c(-c4ccc(O)cc4)sc4cc(O)ccc34)cc2)n1 [Example 55, (E)-2-(4-hydroxyphenyl)-3-(4-(2-(2-methyl-2H-tetrazol-5-yl)vinyl)-phenoxy)benzo[b]-thiophen-6-ol] | 3 |
| Cc1cc(-c2sc3cc(O)ccc3c2Oc2ccc(/C=C/C(=O)O)cc2)ccc1O [Example 61, (E)-3-(4-((6-hydroxy-2-(4-hydroxy-3-methylphenyl)benzo[b]-thiophen-3-yl)oxy)phenyl)acrylic acid] | 327 |
| Cc1cc(F)ccc1-c1sc2cc(O)ccc2c1Oc1ccc(/C=C/C(=O)NO)cc1 [Example 32, (E)-3-(4-((2-(4-fluoro-2-methylphenyl)-6-hydroxybenzo[b]thiophen-3-yl)oxy)phenyl)-N-hydroxyacrylamide] | 15 |
| Cc1c(O)cccc1-c1sc2cc(O)ccc2c1Oc1ccc(/C=C/C(=O)O)cc1 [Example 16, (E)-3-(4-((6-hydroxy-2-(3-hydroxy-2-methyl-phenyl)benzo[b]-thiophen-3-yl)oxy)phenyl)-acrylic acid] | 128 |
| CCc1ccccc1-c1sc2cc(O)ccc2c1Oc1ccc(/C=C/C(=O)O)cc1 [Example 18, (E)-3-(4-((2-(2-ethylphenyl)-6-hydroxybenzo[b]-thiophen-3-yl)oxy)phenyl)-acrylic acid] | 36 |
| CN(c1ccc(/C=C/C(=O)O)cc1)c1c(-c2ccc(O)cc2)sc2cc(O)ccc12 [Example 30, (E)-3-(4-((6-hydroxy-2-(4-hydroxyphenyl)benzo[b]thiophen-3-yl)(methyl)amino)phenyl)acrylic acid] | 3400 |
| O=C(O)/C=C/c1ccc(Oc2c(-c3ccc(O)cc3)sc3cc(O)ccc23)cn1 [Example 29, (E)-3-(5-((6-hydroxy-2-(4-hydroxyphenyl)benzo[b]thiophen-3-yl)oxy)pyridin-2-yl)acrylic acid] | 7750 |
| CNC(=O)/C=C/c1ccc(Oc2c(-c3ccc(O)cc3)sc3cc(O)ccc23)cc1 [Example 66, (E)-3-(4-((6-hydroxy-2-(4-hydroxyphenyl)benzo-[b]thiophen-3-yl)oxy)phenyl)-N-methylacrylamide] | 53 |
| O=C(O)/C=C/c1ccc(Oc2c(-c3ccccc3C(F)(F)F)sc3cc(O)ccc23)cc1 [Example 8, (E)-3-(4-((6-hydroxy-2-(2-(trifluoromethyl)-phenyl)benzo[b]-thiophen-3-yl)oxy)phenyl)-acrylic acid] | 23 |
| Cc1ccccc1-c1sc2cc(O)ccc2c1Oc1ccc(/C=C/C(=O)O)cc1 [Example 5, (E)-3-(4-((6-hydroxy-2-(o-tolyl)benzo-[b]thiophen-3-yl)oxy)-phenyl)acrylic acid] | 89 |
| CCOC(=O)/C=C/c1ccc(Oc2c(-c3ccc(O)cc3)sc3cc(O)ccc23)cc1C [Example 34, (E)-ethyl 3-(4-((6-hydroxy-2-(4-hydroxyphenyl)benzo[b]-thiophen-3-yl)oxy)-2-methylphenyl)acrylate] | 48 |
| O=C(O)/C=C/c1ccc(Oc2c(-c3cccc(F)c3)sc3cc(O)ccc23)cc1 [Example 7, (E)-3-(4-((2-(3-fluorophenyl)-6-hydroxybenzo[b]-thiophen-3-yl)oxy)phenyl)-acrylic acid] | 713 |
| CCCc1nnc(/C=C/c2ccc(Oc3c(-c4ccc(F)cc4C)sc4cc(O)ccc34)cc2)o1 [Example 47, (E)-2-(4-fluoro-2-methylphenyl)-3-(4-(2-(5-propyl-1,3,4-oxadiazol-2-yl)vinyl)phenoxy)benzo [b]thiophen-6-ol] | 111 |
